Measured values as given in patent publication US20090131354A1, “miR-126 REGULATED GENES AND PATHWAYS AS TARGETS FOR THERAPEUTIC INTERVENTION” (priority 2007, published 2009).

Experiments:
SCLC and NSCLC cells = details: various lung cancer cells; cited from earlier work
[1] = test system: human H460 lung cancer xenografts; assay: H460 lung cancer xenograft, cells electroporated before implantation; format: in vivo, NOD/SCID mice; details: H460, day 7
Method: The inventors assessed the growth-inhibitory activity of hsa-miR-126 in human lung cancer xenografts grown in immunodeficient mice. Hsa-miR-126 was delivered into A549 and H460 lung cancer cells via electroporation using the Gene Pulser Xcell™ (BioRad) with the following settings: 15×10^6 cells with 5 μg miRNA in 200 μl OptiMEM, square wave pulse at 150 V for 10 ms. Electroporated cells (5×10^6) were mixed with BD Matrigel™, (BD Biosciences; San Jose, Calif., USA; cat. no. 356237) in a 1:1 ratio and injected subcutaneously into the flank of NOD/SCID mice (Charles River Laboratories, Inc.; Wilmington, Mass., USA). As a negative control, A549 and H460 cells were electroporated with negative control (NC) miRNA (Pre-miR™ microRNA Precursor Molecule-Negative Control #2; Ambion cat. no. AM17111) as described above. To assess the anti-oncogenic activity of hsa-miR-126, six animals were injected with A459 cells and six animals were injected with H460 cells. NC miRNA-treated cells were injected into the opposite flank of the same animal to control for animal-to-animal variability. Once tumors reached a measurable size (A549 at 7 days post injection; H460 at 5 days post injection), the length and width of tumors were determined every day for up to 11 days. Tumor volumes were calculated using the formula, Volume=length X width X width/2, in which the length is greater than the width. […]

[2] = test system: Du145 prostate cancer cells; assay: Long-term growth curve with repeated electroporation, Du145; format: cell-based, human
Description: To evaluate the therapeutic activity of hsa-miR-126 over an extended period of time, we conducted growth curve experiments in the presence of miRNA for up to 21 days. Since in vitro transfections of naked interfering RNAs, such as synthetic miRNA, are transient by nature and compromised by the dilution of the oligonucleotide during ongoing cell divisions, we administered miRNA at multiple time points (Bartlett and Davis, 2006; Bartlett and Davis, 2007). To accommodate miRNA delivery into a large quantity of cells, we employed the electroporation method to delivery hsa-miR-126 or negative control miRNA into PPC-1, PC3 and Du145 human prostate cancer cells. Briefly, 1×10^6 PPC-1 or PC3 cells, and 0.5×10^6 Du145 cells were electroporated with 1.6 μM hsa-miR-126 or negative control using the BioRad Gene Pulser Xcell™ instrument (BioRad Laboratories Inc., Hercules, Calif., USA), seeded and propagated in regular growth medium. Experiments with PC3 and Du145 cells were carried out in triplicates. When the control cells reached confluence (days 4 and 11 for PPC-1; days 7 and 14 for PC3 and Du145), cells were harvested, counted and electroporated again with the respective miRNAs. […] The population doubling was calculated from these electroporation events using the formula PD=ln(Nf/N0)/ln2, and cell counts were extrapolated and plotted on a linear scale (FIGS. 10-12). […]

A549 lung cancer cells = assay: Dose-dependent inhibition of proliferation (Alamar Blue), A549; format: cell-based, human; details: for % proliferation: normalized to mock-transfected cells (0 pM = 100%)
Method: Lipid-based reverse transfections were carried out in triplicate according to a published protocol (Ovcharenko et al., 2005) and the following parameters: Cells (5,000-12,000 per 96 well), 0.1-0.2 μl Lipofectamine™ 2000 (cat. no. 11668-019, Invitrogen Corp., Carlsbad, Calif., USA) in 20 μl OptiMEM (Invitrogen), 30 nM final concentration of miRNA in 100 μl. Electroporation of H226 cells was carried out using the BioRad Gene Pulser Xcell™ instrument (BioRad Laboratories Inc., Hercules, Calif., USA) with the following settings: 5×10^6 cells with 5 μg miRNA in 200 μl OptiMEM (1.6 μM miRNA), square wave pulse at 250 V for 5 ms. Electroporated H226 cells were seeded at 7,000 cells per 96-well in a total volume of 100 μl. All cells except for Calu-3 cells were harvested 72 hours post transfection or electroporation for assessment of cellular proliferation. Calu-3 cells were harvested 10 days post transfection. Proliferation assays were performed using Alamar Blue (Invitrogen) following the manufacturer's instructions. As a control for inhibition of cellular proliferation, siRNA against the motor protein kinesin 11, also known as Eg5, was used. Eg5 is essential for cellular survival of most eukaryotic cells and a lack thereof leads to reduced cell proliferation and cell death (Weil et al., 2002). siEg5 was used in lipid-based transfection following the same experimental parameters that apply to miRNA. The inventors also used a DNA topoisomerase II inhibitor, etoposide, at a final concentration of 10 μM and 50 μM as an internal standard for the potency of miRNAs. Etoposide is an FDA-approved DNA topoisomerase II inhibitor in the treatment of lung cancer. […] Percent (%) proliferation values from the Alamar Blue assay were normalized to values from cells treated with negative control miRNA. Percent proliferation of hsa-miR-126 treated cells relative to cells treated with negative control miRNA (100%) is shown in Table 6 and in FIG. 1.
The inventors determined sensitivity and specificity of hsa-miR-126 by administering hsa-miR-126 or negative control miRNA at increasing concentrations, ranging from 0 pM to 3,000 pM (Table 7, FIG. 2). Delivery of miRNA and assessment of cellular proliferation of A549 and H460 cells were done as described above. Proliferation values from the Alamar Blue assay were normalized to values obtained from mock-transfected cells (0 pM=100% proliferation). Increasing amounts of negative control miRNA (NC) had no effect on cellular proliferation of A549 or H460 cells (Table 7 and FIG. 2). In contrast, the growth-inhibitory phenotype of hsa-miR-126 is dose-dependent and correlates with increasing amounts of hsa-miR-126 (Table 7 and FIG. 2). Hsa-miR-126 induces a specific therapeutic response at concentrations as low as 300 pM.

Compound | IC50 (SCLC and NSCLC cells) | tumor size relative to control tumors [1] | inhibition of cell growth ([2]; Du145, day 20, 1.6 μM repeated electroporation, relative to control cells (100%)) | remaining cells ([2]; Du145, day 20, relative to control cells (100%)) | growth-inhibitory phenotype, dose dependence (A549 lung cancer cells; A549 and H460, 0 pM to 3,000 pM) | concentration inducing a specific therapeutic response (A549 lung cancer cells; A549 and H460, 0 pM to 3,000 pM tested) | % proliferation (A549 lung cancer cells; A549 cells, 3 pM miRNA) | % proliferation (A549 lung cancer cells; A549 cells, 30 pM miRNA) | % proliferation (A549 lung cancer cells; A549 cells, 300 pM miRNA) | % proliferation (A549 lung cancer cells; A549 cells, 3,000 pM miRNA)
COc1cc([C@@H]2c3cc4c(cc3[C@@H](O[C@@H]3O[C@@H]5CO[C@@H](C)O[C@H]5[C@H](O)[C@H]3O)[C@H]3COC(=O)[C@H]23)OCO4)cc(OC)c1O [etoposide] | 1 to 25 µM | – | – | – | – | – | – | – | – | –
hsa-miR-126 (UCGUACCGUGAGUAAUAAUGC; synthetic pre-miR form, further chemistry not given here) [Synthetic hsa-miR-126 (Pre-miR™-hsa-miR-126, Ambion cat. no. AM17100)] | – | smaller in size | 83.9% | 16.1% | dose-dependent | ≥ 300 pM | 95.40% | 92.87% | 80.93% | 74.50%
